The target of the assay is Low molecular weight phosphotyrosine protein phosphatase (Homo sapiens) (UniProt P24666). The assay can be described thus: inhibition of LMPTP-A enzymatic activity – biochemical, OMFP substrate, fluorescence intensity, set 2, dose response (AID 743307). Conditions: LMPTP-A enzyme, OMFP fluorogenic substrate.

Experimental findings from PubChem BioAssay AID743307 (Sanford-Burnham Center for Chemical Genomics, 2014) are described below.

As a reminder, the IC50 is the concentration needed to halve the response being measured.

Sequence of Low molecular weight phosphotyrosine protein phosphatase (Homo sapiens) (P24666 whole entry, looked up): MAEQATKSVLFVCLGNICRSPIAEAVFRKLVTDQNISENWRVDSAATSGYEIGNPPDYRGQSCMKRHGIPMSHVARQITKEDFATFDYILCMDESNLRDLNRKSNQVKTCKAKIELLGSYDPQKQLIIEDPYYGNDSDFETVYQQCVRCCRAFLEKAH

Regarding `COc1ccc(-c2cc(NCCCN3CCCCC3)c3ccccc3n2)cc1`, the IC50 was 1680 nM.
